{"source": "patent US7632827B2", "about": "“Anti-cancer phosphine containing [AuIIIm(CNC)mL]n+ complexes and derivatives thereof and methods for treating cancer using such compositions” (The University of Hong Kong, priority 2006, dated 2009)", "key": {"[1]": {"system": "SUNE1 (human nasopharyngeal carcinoma, cisplatin sensitive)", "experiment": "MTT cytotoxicity, SUNE1", "type": "cell-based", "conditions": "72 h", "protocol": "(§1) The cytotoxicities of the gold(III) compounds toward several human cancer cell lines including nasopharyngeal carcinoma (SUNE1, and its cisplatin variant CNE1), hepatocellular carcinoma (HepG2), and cervical epitheloid carcinoma (HeLa) were determined using a well-established MTT assay."}, "[2]": {"system": "CNE1 (human nasopharyngeal carcinoma, cisplatin resistance)", "experiment": "MTT cytotoxicity, CNE1", "type": "cell-based", "conditions": "72 h", "protocol": "as §1"}, "[3]": {"system": "HeLa (human cervical epithelioid carcinoma)", "experiment": "MTT cytotoxicity, HeLa", "type": "cell-based", "conditions": "72 h", "protocol": "as §1"}, "[4]": {"system": "HepG2 (human hepatocellular carcinoma)", "experiment": "MTT cytotoxicity, HepG2", "type": "cell-based", "conditions": "72 h", "protocol": "as §1"}, "[5]": {"experiment": "Cyclic voltammetry in DMF", "type": "physicochemical", "conditions": "comparison value", "text": "The electrochemical properties of the gold(III) compounds in DMF were studied by cyclic voltammetry. As compared to KAuCl4 [E°gold(III)→gold(I)=−0.4 V], the substantially more cathodic potentials of −1.43 to −1.83 V vs Cp2Fe^+/0 required for the gold(III) reduction in all the gold(III) compounds is consistent with stabilization of gold(III) by the dianionic CNC ligand."}, "[6]": {"system": "several human cancer cell lines", "experiment": "Cytotoxic activities against several cancer cell lines (MTT)", "type": "cell-based", "protocol": "as §1\nA number of structurally distinct gold(III)-phosphino compounds (3a-g) were synthesized and assayed for cytotoxic activities against several cancer cell lines (see Table 1). […] Whereas, shortening (n=1 or 2) or lengthening (n=4, 5 or 6) the hydrocarbon linker reduced the cytotoxicity, with IC50 values increasing by at least an order of magnitude."}, "100-base pair DNA ladder": {"system": "100-base pair DNA ladder", "experiment": "Gel mobility shift assay (DNA intercalation)", "type": "binding", "conditions": "1.5% agarose gel, DNA 50 μM bp-1", "protocol": "A gel mobility shift assay was employed to determine the intercalating property 3d [E. C. Long, J. K. Barton, Acc. Chem. Res. 1990, 23, 271] to evaluate the effect 3d, had upon the DNA binding affinities. A 100-base pair DNA ladder treated with 3d, or ethidium bromide (EB, DNA intercalator) as well as a control were resolved by agarose gel electrophoresis. Briefly, gel electrophoresis of 100-bp DNA ladder on a 1.5% (w/v) agarose gel was performed showing the mobility of DNA (50 μM bp-1) in the absence or presence of ethidium bromide (EB), or compound 3d. […] The bound DNA would have lower mobility compared to that of the free DNA."}, "[7]": {"experiment": "Solution stability (UV-vis, NMR)", "type": "physicochemical", "conditions": "24 h"}, "SUNE1 cells": {"system": "SUNE1 cells", "experiment": "Cell cycle analysis by flow cytometry (propidium iodide)", "type": "cell-based, human", "conditions": "24- or 48-h incubation", "protocol": "To find out whether cellular DNA is a major target of the gold(III) compounds, we studied the cell cycle profiles of 3d-treated cancer cells. Cell cycle analysis was performed by assessing the DNA content of cells stained with propidium iodide using flow cytometry. This enables quantification of the total cellular populations in the different phases of the cell cycle (G0/G1, S and G2/M). […] Compound 3d appears to affect its cytotoxicity via some alternative mechanistic pathways."}, "cancers": {"system": "cancers", "experiment": "Potency against cancers compared with cis-platin"}, "nude mice": {"system": "nude mice", "experiment": "In vivo toxicity studies in nude mice"}}}
{"smiles": "c1ccc([P+](c2ccccc2)(c2ccccc2)[Au-]23[c]4ccccc4-c4cccc([n+]42)-c2cccc[c]23)cc1", "note": "[3a]", "values": [{"measurement": "IC50", "setting": "[1]", "result": "17000 ± 2000", "unit": "nM"}, {"measurement": "IC50", "setting": "[2]", "result": "11000 ± 2000", "unit": "nM"}, {"measurement": "IC50 ratio (CNE1/SUNE1), resistance factor", "setting": "[2]", "result": 0.65}]}
{"smiles": "O=S(=O)([O-])C(F)(F)F.O=S(=O)([O-])C(F)(F)F.c1ccc([P+](CCCC[P+](c2ccccc2)(c2ccccc2)[Au-]23[c]4ccccc4-c4cccc([n+]42)-c2cccc[c]23)(c2ccccc2)[Au-]23[c]4ccccc4-c4cccc([n+]42)-c2cccc[c]23)cc1", "note": "[3e, [Au2(CNC)2(μ-dppb)](CF3SO3)2]", "values": [{"measurement": "IC50", "setting": "[3]", "result": "2400 ± 200", "unit": "nM"}, {"measurement": "IC50", "setting": "[1]", "result": "1500 ± 200", "unit": "nM"}, {"measurement": "IC50", "setting": "[2]", "result": "2200 ± 300", "unit": "nM"}, {"measurement": "IC50 ratio (CNE1/SUNE1), resistance factor", "setting": "[2]", "result": 1.5}]}
{"smiles": "O=S(=O)([O-])C(F)(F)F.O=S(=O)([O-])C(F)(F)F.c1ccc([P+](CCCCC[P+](c2ccccc2)(c2ccccc2)[Au-]23[c]4ccccc4-c4cccc([n+]42)-c2cccc[c]23)(c2ccccc2)[Au-]23[c]4ccccc4-c4cccc([n+]42)-c2cccc[c]23)cc1", "note": "[3f, [Au2(CNC)2(μ-dpppe)](CF3SO3)2]", "values": [{"measurement": "IC50", "setting": "[3]", "result": "1500 ± 300", "unit": "nM"}, {"measurement": "IC50", "setting": "[1]", "result": "1600 ± 300", "unit": "nM"}, {"measurement": "IC50", "setting": "[2]", "result": "2500 ± 300", "unit": "nM"}, {"measurement": "IC50 ratio (CNE1/SUNE1), resistance factor", "setting": "[2]", "result": 1.6}]}
{"smiles": "O=S(=O)([O-])C(F)(F)F.O=S(=O)([O-])C(F)(F)F.c1ccc([P+](CCCCCC[P+](c2ccccc2)(c2ccccc2)[Au-]23[c]4ccccc4-c4cccc([n+]42)-c2cccc[c]23)(c2ccccc2)[Au-]23[c]4ccccc4-c4cccc([n+]42)-c2cccc[c]23)cc1", "note": "[3g, [Au2(CNC)2(μ-dpph)](CF3SO3)2]", "values": [{"measurement": "IC50", "setting": "[3]", "result": "3200 ± 400", "unit": "nM"}, {"measurement": "IC50", "setting": "[1]", "result": "4300 ± 900", "unit": "nM"}, {"measurement": "IC50", "setting": "[2]", "result": "3200 ± 500", "unit": "nM"}, {"measurement": "IC50 ratio (CNE1/SUNE1), resistance factor", "setting": "[2]", "result": 0.74}]}
{"smiles": "O=S(=O)([O-])C(F)(F)F.O=S(=O)([O-])C(F)(F)F.O=S(=O)([O-])C(F)(F)F.c1ccc([P+](CC[P+](c2ccccc2)(c2ccccc2)[Au-]23[c]4ccccc4-c4cccc([n+]42)-c2cccc[c]23)(CC[P+](c2ccccc2)(c2ccccc2)[Au-]23[c]4ccccc4-c4cccc([n+]42)-c2cccc[c]23)[Au-]23[c]4ccccc4-c4cccc([n+]42)-c2cccc[c]23)cc1", "note": "[3h, [Au3(CNC)3(μ-dpep)](CF3SO3)3]", "values": [{"measurement": "IC50", "setting": "[3]", "result": "930 ± 90", "unit": "nM"}, {"measurement": "IC50", "setting": "[4]", "result": "3800 ± 600", "unit": "nM"}, {"measurement": "IC50", "setting": "[1]", "result": "260 ± 30", "unit": "nM"}, {"measurement": "IC50", "setting": "[2]", "result": "400 ± 50", "unit": "nM"}, {"measurement": "IC50 ratio (CNE1/SUNE1), resistance factor", "setting": "[2]", "result": 1.5}]}
{"smiles": "[Cl][Au-]([Cl])([Cl])[Cl].[K+]", "note": "[KAuCl4]", "values": [{"measurement": "E° gold(III)→gold(I)", "setting": "[5]", "result": "−0.4", "unit": "V"}]}
{"smiles": "[Cl-].[Cl][Pt-2]12[n+]3ccccc3-c3cccc([n+]31)-c1cccc[n+]12", "note": "[[Pt(terpy)Cl]Cl, reference compound]", "values": [{"measurement": "IC50", "setting": "[3]", "result": "14000 ± 2000", "unit": "nM"}, {"measurement": "IC50", "setting": "[4]", "result": "23000 ± 3000", "unit": "nM"}, {"measurement": "IC50", "setting": "[1]", "result": "11000 ± 3000", "unit": "nM"}, {"measurement": "IC50", "setting": "[2]", "result": "13000 ± 2000", "unit": "nM"}, {"measurement": "IC50 ratio (CNE1/SUNE1), resistance factor", "setting": "[2]", "result": 1.2}]}
{"smiles": "N.N.[Cl][Pt][Cl]", "note": "[cisplatin, reference compound]", "values": [{"measurement": "IC50", "setting": "[3]", "result": "11000 ± 1000", "unit": "nM"}, {"measurement": "IC50", "setting": "[4]", "result": "1600 ± 200", "unit": "nM"}, {"measurement": "IC50", "setting": "[1]", "result": "1000 ± 100", "unit": "nM"}, {"measurement": "IC50", "setting": "[2]", "result": "3300 ± 500", "unit": "nM"}, {"measurement": "IC50 ratio (CNE1/SUNE1), resistance factor", "setting": "[2]", "result": 3.3}]}
{"smiles": "O=S(=O)([O-])C(F)(F)F.O=S(=O)([O-])C(F)(F)F.c1ccc([P+](CCC[P+](c2ccccc2)(c2ccccc2)[Au-]23[c]4ccccc4-c4cccc([n+]42)-c2cccc[c]23)(c2ccccc2)[Au-]23[c]4ccccc4-c4cccc([n+]42)-c2cccc[c]23)cc1", "note": "[compound 3d, [Au2(CNC)2(μ-dppp)](CF3SO3)2]", "values": [{"measurement": "IC50", "setting": "[3]", "result": 43, "unit": "nM"}, {"measurement": "IC50", "setting": "[4]", "result": "210 ± 90", "unit": "nM"}, {"measurement": "IC50", "setting": "[1]", "result": 55, "unit": "nM"}, {"measurement": "IC50", "setting": "[2]", "result": 91, "unit": "nM"}, {"measurement": "IC50 ratio (CNE1/SUNE1), resistance factor", "setting": "[2]", "result": 1.7}, {"measurement": "Relative cytotoxicity among metal-free and metallated 1,2-bis(diphenylphosphino)Cn compounds", "setting": "[6]", "result": "most cytotoxic"}, {"measurement": "DNA intercalation (tailing effect in gel)", "setting": "100-base pair DNA ladder", "result": "does not bind to DNA by intercalation"}, {"measurement": "Stability on standing in DMSO or TBS (UV-vis, 31P, 1H NMR)", "setting": "[7]", "result": "no UV-vis, ^31P or ^1H NMR spectral changes"}, {"measurement": "Effect on cell cycle", "setting": "SUNE1 cells", "result": "did not significantly affect the cell cycle"}, {"measurement": "potency against cancers relative to cis-platin", "setting": "cancers", "result": "about 200 times"}, {"measurement": "toxicity to nude mice", "setting": "nude mice; concentrations 20-fold higher than the effective dose", "result": "non-toxic"}, {"measurement": "DNA mutation upon usage", "setting": "nude mice; mouse, in vivo", "result": "does not cause DNA mutation"}]}
